“Also recorded” adds a separate entry of the source.
Key:
[1] = system: genotoxic stress-induced NF-κB signaling; experiment: Etoposide-induced p65 nuclear translocation, immunofluorescence / high content screening in U2OS cells; format: cell-based, human
Description: FIG. 2: U2OS cells were pre-treated and incubated with DMSO or MW01. DNA damage was induced by administration of etoposide. After 2 h cells were fixed, nuclei were stained with DAPI. p65 and phospho-H2AX, which is indicative for DNA DSB, were stained by immunofluorescence. Images were taken at a confocal Zeiss 710 LSM with a 40× oil objective.
FIG. 3: (A) U2OS cells were pre-treated with increasing concentrations of MW01 in duplicates in a 384 well plate. Then, cells were treated with etoposide, fixed and subjected to IF of p65. Spatial measurement of p65 cytosolic and nuclear localisation was used for calculation of p65 translocation rates. (B) U2OS cells were pre-treated with DMSO, MW01 and irradiated with γ-IR. After 90 min cells were lysed and subjected to SDS-PAGE/WB and EMSA. (C) Cells were pre-treated with different concentrations of MW01 as indicated, treated with γ-IR (C) or etoposide (D) and subjected to WB or EMSA, respectively. LDH in (C) represents the loading control.
Genotoxic stress was applied by ionizing irradiation of cells with a Cs137 source (0629 Irradiator, STS Braunschweig), or by inhibition of the topoisomerase II enzyme by administration of etoposide at concentrations between 20-50 μM for 2 h.
For immunofluorescence staining 0.95×10^5 cells were seeded in 6 well plates onto autoclaved cover slips. Cellular confluency dictated to beginning of the experiment (2-3 days from seeding). After conduction of experiments cells were washed with PBS and fixed with 4% PFA/double-distilled H2O (ddH2O) for 10 min at RT. Following two additional washing steps cells were incubated with a solution containing 0.12% glycine/0.2% saponin in PBS for 10 min and then blocked with a solution containing 10% FCS/0.2% saponin in PBS for 1 h. Primary antibody incubation was performed overnight at 4° C. (1:500 diluted in 0.2% saponin in PBS). The next day, cover slips were washed five times with a solution containing 0.2% saponin in PBS. Fluorophor-coupled secondary antibodies (1:1000 diluted in 0.2% saponin in PBS) were incubated for 1 h (hour) at RT. Nuclei were stained using 0.2 mg/ml DAPI in PBS for […] or by directly mounting with DAPI/Mowiol. Finally, the cover slips were washed five times with 0.2% saponin in PBS and two times with ddH2O. Confocal microscopy was performed using a Zeiss 710 LSM with a 40× or a 63× oil objective.
In order to identify specific inhibitors of the DNA damage-induced NF-κB pathway, a differential screening assay was designed. The primary screening for inhibitors of genotoxic stress-induced NF-κB signaling utilised a library of compounds from ChemBioNet and donated compounds of academic chemists. DNA damage was applied by application of etoposide. All compounds which inhibited p65 nuclear translocation were taken for subsequent counter screening. For the counter screening administration of TNFα was used to induce canonical NF-κB signaling. All substances inhibiting TNFα-induced canonical NF-κB activation were discarded from the list of potential DNA damage-pathway specific substances.

[2] = target: nuclear IKKγ-PIASy-PARP1-ATM signalosome (Homo sapiens, UniProt P09874+Q13315+Q8N2W9+Q9Y6K9); experiment: Nuclear PARP1-signalosome formation, co-immunoprecipitation, HepG2 cells; format: cell-based; set-up: endogenous in cells
Sequence of nuclear IKKγ-PIASy-PARP1-ATM signalosome (Q9Y6K9 whole entry): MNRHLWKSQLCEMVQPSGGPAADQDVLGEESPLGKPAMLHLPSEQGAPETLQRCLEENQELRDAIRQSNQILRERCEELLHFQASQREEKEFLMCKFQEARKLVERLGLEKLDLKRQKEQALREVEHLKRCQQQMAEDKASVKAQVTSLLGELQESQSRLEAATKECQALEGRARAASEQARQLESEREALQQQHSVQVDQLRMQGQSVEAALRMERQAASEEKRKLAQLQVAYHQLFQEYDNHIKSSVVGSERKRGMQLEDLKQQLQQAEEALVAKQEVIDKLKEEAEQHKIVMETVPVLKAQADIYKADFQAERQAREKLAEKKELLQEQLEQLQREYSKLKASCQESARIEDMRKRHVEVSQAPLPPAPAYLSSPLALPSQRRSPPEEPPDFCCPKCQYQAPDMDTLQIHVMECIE
Sequence of nuclear IKKγ-PIASy-PARP1-ATM signalosome (Q8N2W9 2-510 limits assumed): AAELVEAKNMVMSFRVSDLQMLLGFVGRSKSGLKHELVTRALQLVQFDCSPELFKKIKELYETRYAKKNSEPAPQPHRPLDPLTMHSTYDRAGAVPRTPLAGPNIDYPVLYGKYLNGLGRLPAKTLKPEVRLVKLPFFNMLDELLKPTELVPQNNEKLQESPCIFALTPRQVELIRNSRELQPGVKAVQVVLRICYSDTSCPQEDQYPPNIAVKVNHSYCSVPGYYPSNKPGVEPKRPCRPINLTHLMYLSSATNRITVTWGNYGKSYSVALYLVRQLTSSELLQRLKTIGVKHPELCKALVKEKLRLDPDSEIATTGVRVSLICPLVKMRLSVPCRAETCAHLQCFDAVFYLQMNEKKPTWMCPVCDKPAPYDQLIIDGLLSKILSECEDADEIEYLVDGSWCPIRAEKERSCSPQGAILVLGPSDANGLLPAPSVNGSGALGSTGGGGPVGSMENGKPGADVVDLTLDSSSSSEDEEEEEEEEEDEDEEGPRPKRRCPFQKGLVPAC
Sequence of nuclear IKKγ-PIASy-PARP1-ATM signalosome (P09874 2-1014 limits assumed): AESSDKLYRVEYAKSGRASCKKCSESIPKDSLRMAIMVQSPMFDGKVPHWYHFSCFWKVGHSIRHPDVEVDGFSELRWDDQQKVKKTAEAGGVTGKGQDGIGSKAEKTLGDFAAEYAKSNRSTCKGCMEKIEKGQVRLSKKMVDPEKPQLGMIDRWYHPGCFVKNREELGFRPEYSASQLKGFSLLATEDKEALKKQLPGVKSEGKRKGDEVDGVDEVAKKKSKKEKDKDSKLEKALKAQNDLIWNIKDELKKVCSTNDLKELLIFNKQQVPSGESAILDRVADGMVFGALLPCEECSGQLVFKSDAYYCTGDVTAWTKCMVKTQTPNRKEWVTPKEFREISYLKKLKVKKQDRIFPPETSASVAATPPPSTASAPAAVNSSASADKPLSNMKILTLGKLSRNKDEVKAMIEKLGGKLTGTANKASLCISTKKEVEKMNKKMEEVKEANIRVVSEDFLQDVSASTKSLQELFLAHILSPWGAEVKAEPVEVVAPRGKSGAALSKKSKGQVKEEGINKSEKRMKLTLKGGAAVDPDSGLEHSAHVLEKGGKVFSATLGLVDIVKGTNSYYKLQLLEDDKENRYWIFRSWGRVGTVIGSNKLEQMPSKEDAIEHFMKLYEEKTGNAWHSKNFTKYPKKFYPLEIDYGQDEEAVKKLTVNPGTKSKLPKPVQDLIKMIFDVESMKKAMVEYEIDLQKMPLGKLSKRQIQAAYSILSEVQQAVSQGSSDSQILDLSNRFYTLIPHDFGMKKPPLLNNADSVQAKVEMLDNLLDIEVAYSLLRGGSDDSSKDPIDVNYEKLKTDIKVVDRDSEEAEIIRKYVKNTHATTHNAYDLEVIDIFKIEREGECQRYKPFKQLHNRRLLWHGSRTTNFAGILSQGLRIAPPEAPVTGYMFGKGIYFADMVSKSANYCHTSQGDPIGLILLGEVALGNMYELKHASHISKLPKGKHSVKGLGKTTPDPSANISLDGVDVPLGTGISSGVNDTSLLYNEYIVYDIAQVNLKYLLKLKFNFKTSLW
Sequence of nuclear IKKγ-PIASy-PARP1-ATM signalosome (Q13315 2-3056 limits assumed): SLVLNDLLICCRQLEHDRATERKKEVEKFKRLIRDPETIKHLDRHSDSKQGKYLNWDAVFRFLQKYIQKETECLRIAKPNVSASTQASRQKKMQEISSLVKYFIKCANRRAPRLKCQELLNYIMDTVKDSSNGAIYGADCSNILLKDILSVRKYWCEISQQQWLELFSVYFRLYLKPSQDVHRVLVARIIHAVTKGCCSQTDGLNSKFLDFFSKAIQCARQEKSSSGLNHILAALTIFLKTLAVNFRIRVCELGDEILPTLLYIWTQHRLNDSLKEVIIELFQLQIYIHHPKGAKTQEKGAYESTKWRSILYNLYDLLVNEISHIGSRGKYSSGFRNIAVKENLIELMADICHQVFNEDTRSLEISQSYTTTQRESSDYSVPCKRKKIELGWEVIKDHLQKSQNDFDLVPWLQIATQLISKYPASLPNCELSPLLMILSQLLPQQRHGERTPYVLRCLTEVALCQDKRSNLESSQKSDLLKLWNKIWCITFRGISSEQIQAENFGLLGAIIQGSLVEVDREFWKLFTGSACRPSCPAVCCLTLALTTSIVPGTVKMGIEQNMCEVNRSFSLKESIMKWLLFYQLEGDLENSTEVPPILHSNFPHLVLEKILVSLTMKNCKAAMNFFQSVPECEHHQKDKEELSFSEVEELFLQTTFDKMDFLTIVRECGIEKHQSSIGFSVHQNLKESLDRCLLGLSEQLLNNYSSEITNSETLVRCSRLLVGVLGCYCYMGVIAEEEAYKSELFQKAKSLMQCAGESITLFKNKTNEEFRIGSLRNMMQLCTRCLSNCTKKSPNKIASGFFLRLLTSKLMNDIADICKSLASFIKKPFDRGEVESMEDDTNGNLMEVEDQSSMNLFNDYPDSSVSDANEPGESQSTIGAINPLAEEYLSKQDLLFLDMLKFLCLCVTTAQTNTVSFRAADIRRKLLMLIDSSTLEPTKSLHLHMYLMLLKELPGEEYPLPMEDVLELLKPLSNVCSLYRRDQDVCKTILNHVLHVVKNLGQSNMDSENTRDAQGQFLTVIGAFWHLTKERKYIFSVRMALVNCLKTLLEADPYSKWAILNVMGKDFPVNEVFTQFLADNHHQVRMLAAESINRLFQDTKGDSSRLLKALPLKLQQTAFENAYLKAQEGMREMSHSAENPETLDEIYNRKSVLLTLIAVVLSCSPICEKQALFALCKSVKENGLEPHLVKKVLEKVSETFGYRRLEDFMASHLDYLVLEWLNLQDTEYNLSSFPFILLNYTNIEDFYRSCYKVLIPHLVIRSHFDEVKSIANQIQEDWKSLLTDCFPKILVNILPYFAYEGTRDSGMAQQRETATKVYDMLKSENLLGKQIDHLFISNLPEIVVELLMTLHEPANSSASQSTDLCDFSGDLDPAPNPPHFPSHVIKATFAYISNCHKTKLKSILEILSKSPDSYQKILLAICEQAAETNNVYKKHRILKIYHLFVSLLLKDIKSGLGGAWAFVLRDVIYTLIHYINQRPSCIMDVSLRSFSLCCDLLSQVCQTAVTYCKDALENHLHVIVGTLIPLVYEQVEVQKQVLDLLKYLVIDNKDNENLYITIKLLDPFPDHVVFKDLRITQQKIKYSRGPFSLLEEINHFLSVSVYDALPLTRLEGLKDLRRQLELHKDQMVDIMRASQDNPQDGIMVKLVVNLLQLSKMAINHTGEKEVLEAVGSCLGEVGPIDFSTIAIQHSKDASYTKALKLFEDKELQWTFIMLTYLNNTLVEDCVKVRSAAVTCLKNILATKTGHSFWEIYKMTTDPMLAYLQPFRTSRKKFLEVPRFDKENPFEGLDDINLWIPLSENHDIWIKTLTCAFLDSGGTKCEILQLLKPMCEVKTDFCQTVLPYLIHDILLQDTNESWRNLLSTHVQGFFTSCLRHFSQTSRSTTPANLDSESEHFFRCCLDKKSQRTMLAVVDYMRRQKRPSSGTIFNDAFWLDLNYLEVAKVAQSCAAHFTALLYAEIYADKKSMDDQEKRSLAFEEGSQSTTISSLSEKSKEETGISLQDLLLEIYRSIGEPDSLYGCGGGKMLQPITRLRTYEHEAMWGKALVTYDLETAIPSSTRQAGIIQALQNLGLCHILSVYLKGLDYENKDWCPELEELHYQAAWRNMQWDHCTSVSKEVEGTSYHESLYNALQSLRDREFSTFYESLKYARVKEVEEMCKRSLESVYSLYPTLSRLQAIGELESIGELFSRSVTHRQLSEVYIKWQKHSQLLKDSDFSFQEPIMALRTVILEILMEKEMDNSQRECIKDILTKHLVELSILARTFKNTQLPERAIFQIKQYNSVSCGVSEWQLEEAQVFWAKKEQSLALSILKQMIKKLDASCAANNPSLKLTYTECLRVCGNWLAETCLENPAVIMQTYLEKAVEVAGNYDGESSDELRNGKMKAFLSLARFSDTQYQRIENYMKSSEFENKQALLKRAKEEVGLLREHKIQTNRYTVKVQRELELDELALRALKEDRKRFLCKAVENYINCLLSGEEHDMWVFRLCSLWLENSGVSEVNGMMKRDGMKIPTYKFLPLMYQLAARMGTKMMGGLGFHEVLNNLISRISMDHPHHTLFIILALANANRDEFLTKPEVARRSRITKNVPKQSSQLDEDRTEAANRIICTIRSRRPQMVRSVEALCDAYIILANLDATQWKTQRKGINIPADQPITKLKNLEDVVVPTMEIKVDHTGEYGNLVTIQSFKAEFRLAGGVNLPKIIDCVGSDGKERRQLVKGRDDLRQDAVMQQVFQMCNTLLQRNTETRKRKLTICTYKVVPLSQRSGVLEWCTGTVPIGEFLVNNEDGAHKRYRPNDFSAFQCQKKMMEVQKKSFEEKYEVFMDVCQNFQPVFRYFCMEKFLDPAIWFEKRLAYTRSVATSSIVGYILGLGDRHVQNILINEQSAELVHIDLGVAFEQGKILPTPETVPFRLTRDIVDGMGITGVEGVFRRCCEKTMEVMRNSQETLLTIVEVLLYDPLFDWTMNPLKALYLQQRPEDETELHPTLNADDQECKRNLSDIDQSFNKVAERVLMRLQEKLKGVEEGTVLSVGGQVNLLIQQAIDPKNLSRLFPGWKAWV
Description: FIG. 8: (A) HepG2 cells were pre-treated with DMSO or MW01 and irradiated. Nuclear cell extracts (NE) were used for PIASy immunoprecipitation (IP). Western blot membranes were incubated with indicated antibodies. (B) Experiment as shown in (A), but with IKKγ IP. (C) Experiment as shown in (B), but done in HEK293 cells. (D) Experiment done as shown in […], but repeated in MEF cells.
Following cell lysis the protein concentration of samples was determined. For input controls, 40 μg lysate were mixed with 6×SDS-buffer and denatured by heating to 95° C. for 4 min. Approximately 1500 μg protein lysate was used for pulldown and samples volumes were equalled with lysis buffer. Lysates were precleared with 30 μl sepharose A or sepharose G beads (depending on the antibody type used for pulldown) for 30 min, and centrifuged for 5 min at 1,500×g. The supernatant was transferred to a new reaction tube. Primary antibody (2-2.5 μg) was added to the cleared lysate for immunoprecipitation overnight while rotating at 4° C. The next day 30 μl sepharose beads per sample were used for immobilisation of antibodies. Following 4 washes with IP wash buffer precipitated proteins were eluted by mixing with 3×SDS-buffer and heating to 95° C. for 4 min.

[3] = system: genotoxic stress-initiated NF-κB signaling cascade; experiment: Time course of IκBα, p65, IKK and TAK1 phosphorylation after γ-IR, WB, U2OS cells; format: cell-based, human
Description: FIG. 6: (A) U2OS cells were pre-treated with DMSO or MW01 and irradiated. Stimulation of cell with IL-1β served as a positive control for IκBα and p65 phosphorylation. Cells were lysed at indicated time points and used for WB analyses. (B,C) Similar experimental setup as in (A). (D) Experiment as in (A-C), but with other time points analysed and performed with HepG2 cells. PARP1 and LDH serve as loading controls.

[4] = system: TNFα-induced NF-κB activation; experiment: NF-κB DNA binding activity (EMSA) after TNFα stimulation, HEK293 cells; format: cell-based, human
Description: FIG. 4: (A) U2OS cells were pre-treated with increasing concentrations of MW01 in triplicates in a 384 well plate. Then, cells were treated with TNFα, fixed and subjected to IF staining of p65. Spatial measurement of p65 cytosolic and nuclear signals was used for the calculation of p65 translocation rates. (B) U2OS cells were pre-treated with MW01 at concentrations of 10 or 20 μM and stimulated with TNFα. Cell lysates were subjected to SDS-PAGE/WB. (C) HEK293 cells were pre-treated with DMSO or MW01 followed by administration of etoposide or TNFα. Cell lysates were used for EMSA.
For the activation of the canonical NF-κB pathway cells were treated with recombinant human TNFα (10 ng/ml) or IL-1β (10 ng/ml) for 20-30 min at 37° C.
Nuclear or whole cell lysates were incubated with a ^32P-labeled NF-κB DNA-[…]

[5] = target: T1, PARP1 (Mus musculus, UniProt P11103); experiment: PARP1 enzymatic activity, PAR chain formation after γ-irradiation, MEF cells; format: cell-based
T1 construct: endogenous in cells; host or cells: MEF (mouse embryonic fibroblasts)
Description: FIG. 10: (A) MEF cells were pre-treated with the indicated substances, irradiated and cell lysates were used for poly(ADP)-ribose probing using a specific antibody. (B) Experiment performed as described for (A), but using U2OS cells.

## COc1ccc2c(c1OC)c(=O)n1c3ccc(O)cc3c3ccnc2c31 [MW01, 12-hydroxy-6,7-dimethoxy-8H-benzo[c]indolo[3,2,1-ij][1,5]naphthyridin-8-one]
[1]; Homo sapiens, U2OS, etoposide-induced p65 nuclear translocation, high content screening
  IC50: 460 nM
[1]; IC50 determination assay
  calculated Hill coefficient: −0.9
[1]; etoposide
  percentage in activity change (as recorded in IC50 determination assay): 120%
[1]; etoposide stimulation, U2OS
  concentration sufficient for maximal inhibition of p65 nuclear translocation: 5 µM
[1]; etoposide, U2OS
  inhibition of etoposide-induced p65 nuclear translocation / NF-κB activation: inhibited NF-κB activation in response to etoposide stimulation; also recorded: inhibited the nuclear translocation of p65 upon etoposide stimulation in a concentration dependent manner
[2]; HepG2, IKKγ IP
  co-immunoprecipitation of PARP1 with IKKγ: not co-immunoprecipitated
[2]; HepG2 nuclear extracts, PIASy IP
  γ-irradiation-induced Co-IP of phosphorylated ATM-51981 species with PIASy: lost after pre-treatment with MW01
[3]; 45 and 60 min following irradiation
  TAK1 phosphorylation: strongly inhibited
[3]; 45 min and 60 min after γ-IR
  IκBα phosphorylation: complete inhibition
  p65 S536 phosphorylation: inhibited
[3]; 90 min after irradiation
  IKK phosphorylation: abolished
[4]
  induced NF-κB DNA binding activity upon TNFα stimulation: did not interfere with induced NF-κB DNA binding activity
[5]
  PAR chain formation / PARP1 enzymatic activity: did not interfere with activation of PARP1 enzymatic activity

From patent publication US11028084B2, “Selective inhibitors of gentotoxic steress-induced IKK/NF-κB pathways” (Max-Delbrück-Centrum für Molekulare Medizin in der …, priority 2016, dated 2021)
